Among the data in ChEMBL document CHEMBL5226288, “A perspective on medicinal chemistry approaches towards adenomatous polyposis coli and Wnt signal based colorectal cancer inhibitors” (Eur J Med Chem, 2021) are IC50 and Ki values, retold here.

In test [1] the test system is DLD-1. Description: Anticancer activity against human DLD-1 cells assessed as reduction in cell viability incubated for 24 hrs by Cell Titer-Glo assay. The test is classed as functional, cell-based. As to conditions: DLD-1, 24 h.
For test [2], the system named is HCT-116. Briefly: Anticancer activity against human HCT-116 cells assessed as reduction in cell viability incubated for 24 hrs by Cell Titer-Glo assay. The format is functional, cell-based. As to conditions: HCT-116, 24 h.
In test [3] the target is 3-beta-hydroxysteroid-Delta(8),Delta(7)-isomerase (Homo sapiens, UniProt Q15125). Briefly: Inhibition of EBP (unknown origin).
The target of test [4] is T1, 7-dehydrocholesterol reductase (Homo sapiens, UniProt Q9UBM7).
T1 sequence (Q9UBM7 whole entry): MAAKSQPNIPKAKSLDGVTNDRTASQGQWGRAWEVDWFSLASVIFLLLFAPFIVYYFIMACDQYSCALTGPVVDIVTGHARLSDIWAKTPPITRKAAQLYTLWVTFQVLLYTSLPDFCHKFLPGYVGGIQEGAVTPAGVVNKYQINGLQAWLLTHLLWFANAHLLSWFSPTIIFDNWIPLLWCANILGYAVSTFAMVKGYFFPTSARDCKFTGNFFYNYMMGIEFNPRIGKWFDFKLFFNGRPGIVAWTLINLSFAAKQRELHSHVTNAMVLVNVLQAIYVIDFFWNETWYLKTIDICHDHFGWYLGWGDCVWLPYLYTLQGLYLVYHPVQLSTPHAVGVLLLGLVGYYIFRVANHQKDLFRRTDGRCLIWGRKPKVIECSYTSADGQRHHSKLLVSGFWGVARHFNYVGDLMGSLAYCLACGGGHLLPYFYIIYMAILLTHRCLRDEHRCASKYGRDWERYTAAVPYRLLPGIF
Briefly: Inhibition of DHCR7 (unknown origin).

In test [5] the target is DNA polymerase beta (Homo sapiens, UniProt P06746). Briefly: Inhibition of human DNA polymerase beta using 32P-labeled 63-mer F-DNA substrate preincubated for 5 mins followed by substrate addition and measured after 45 mins by autoradiography.
Test [6] addresses T2, Adenomatous polyposis coli protein (Homo sapiens, UniProt P25054). Description: Inhibition of APC (303 to 739 residues) (unknown origin) preincubated for 60 mins followed by substrate addition and measured after 60 mins using Ac-GGGGEQLAINELISDGK-FITC as substrate by fluorescence polarization assay.
For test [7], the target named is T2, Adenomatous polyposis coli protein. Briefly: Inhibition of APC (303 to 739 residues) (unknown origin) assessed as inhibition constant preincubated for 60 mins followed by substrate addition and measured after 60 mins using Ac-GGGGEQLAINELISDGK-FITC as substrate by fluorescence polarization assay.
Test [8] can be described thus: Inhibition of Wnt/beta-catenin signaling pathway in mouse L Wnt-3A cells harbouring STF-reporter gene assessed as assessed as reduction in luciferase activity incubated for 24 hrs by luciferase reporter assay. The format is cell-based.
Test [9] deals with HCT-116. Briefly: Anticancer activity against human HCT-116 cells assessed as reduction in cell viability. The format is functional, cell-based.
In test [10] the test system is DLD-1. Briefly: Anticancer activity against human DLD-1 cells assessed as cell growth inhibition by SRB assay. The test is classed as functional, cell-based.
The test system of test [11] is SW480. Briefly: Anticancer activity against human SW480 cells assessed as cell growth inhibition by SRB assay. The test is classed as functional, cell-based.
Test [12] relates to HCT-116. Briefly: Antiproliferative activity against human HCT-116 cells assessed as reduction in cell proliferation incubated for 72 hrs by MTS assay. The test is classed as functional, cell-based. To be noted: HCT-116, 72 h.
For test [13], the system named is SW480. Description: Anticancer activity against human SW480 cells assessed as reduction in cell viability. The format is functional, cell-based.

Non-standard residues stand in square brackets, D forms with d. Residues, ends and D or L forms follow the SMILES beside them. *: point of attachment. Ala(cPent) = N[C@@H](CC1CCCC1)C(=O)O; Cbz = O=C(OCc1ccccc1)*

Sequence of 3-beta-hydroxysteroid-Delta(8),Delta(7)-isomerase (Q15125 whole entry): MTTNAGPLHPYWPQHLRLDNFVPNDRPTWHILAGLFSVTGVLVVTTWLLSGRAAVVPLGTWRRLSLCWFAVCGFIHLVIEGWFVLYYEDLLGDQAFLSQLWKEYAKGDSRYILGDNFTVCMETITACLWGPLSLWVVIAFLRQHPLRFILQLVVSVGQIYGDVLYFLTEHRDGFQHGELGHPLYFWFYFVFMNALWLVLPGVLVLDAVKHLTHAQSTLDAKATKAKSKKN
T2 sequence (P25054 whole entry, the tested form may be a part): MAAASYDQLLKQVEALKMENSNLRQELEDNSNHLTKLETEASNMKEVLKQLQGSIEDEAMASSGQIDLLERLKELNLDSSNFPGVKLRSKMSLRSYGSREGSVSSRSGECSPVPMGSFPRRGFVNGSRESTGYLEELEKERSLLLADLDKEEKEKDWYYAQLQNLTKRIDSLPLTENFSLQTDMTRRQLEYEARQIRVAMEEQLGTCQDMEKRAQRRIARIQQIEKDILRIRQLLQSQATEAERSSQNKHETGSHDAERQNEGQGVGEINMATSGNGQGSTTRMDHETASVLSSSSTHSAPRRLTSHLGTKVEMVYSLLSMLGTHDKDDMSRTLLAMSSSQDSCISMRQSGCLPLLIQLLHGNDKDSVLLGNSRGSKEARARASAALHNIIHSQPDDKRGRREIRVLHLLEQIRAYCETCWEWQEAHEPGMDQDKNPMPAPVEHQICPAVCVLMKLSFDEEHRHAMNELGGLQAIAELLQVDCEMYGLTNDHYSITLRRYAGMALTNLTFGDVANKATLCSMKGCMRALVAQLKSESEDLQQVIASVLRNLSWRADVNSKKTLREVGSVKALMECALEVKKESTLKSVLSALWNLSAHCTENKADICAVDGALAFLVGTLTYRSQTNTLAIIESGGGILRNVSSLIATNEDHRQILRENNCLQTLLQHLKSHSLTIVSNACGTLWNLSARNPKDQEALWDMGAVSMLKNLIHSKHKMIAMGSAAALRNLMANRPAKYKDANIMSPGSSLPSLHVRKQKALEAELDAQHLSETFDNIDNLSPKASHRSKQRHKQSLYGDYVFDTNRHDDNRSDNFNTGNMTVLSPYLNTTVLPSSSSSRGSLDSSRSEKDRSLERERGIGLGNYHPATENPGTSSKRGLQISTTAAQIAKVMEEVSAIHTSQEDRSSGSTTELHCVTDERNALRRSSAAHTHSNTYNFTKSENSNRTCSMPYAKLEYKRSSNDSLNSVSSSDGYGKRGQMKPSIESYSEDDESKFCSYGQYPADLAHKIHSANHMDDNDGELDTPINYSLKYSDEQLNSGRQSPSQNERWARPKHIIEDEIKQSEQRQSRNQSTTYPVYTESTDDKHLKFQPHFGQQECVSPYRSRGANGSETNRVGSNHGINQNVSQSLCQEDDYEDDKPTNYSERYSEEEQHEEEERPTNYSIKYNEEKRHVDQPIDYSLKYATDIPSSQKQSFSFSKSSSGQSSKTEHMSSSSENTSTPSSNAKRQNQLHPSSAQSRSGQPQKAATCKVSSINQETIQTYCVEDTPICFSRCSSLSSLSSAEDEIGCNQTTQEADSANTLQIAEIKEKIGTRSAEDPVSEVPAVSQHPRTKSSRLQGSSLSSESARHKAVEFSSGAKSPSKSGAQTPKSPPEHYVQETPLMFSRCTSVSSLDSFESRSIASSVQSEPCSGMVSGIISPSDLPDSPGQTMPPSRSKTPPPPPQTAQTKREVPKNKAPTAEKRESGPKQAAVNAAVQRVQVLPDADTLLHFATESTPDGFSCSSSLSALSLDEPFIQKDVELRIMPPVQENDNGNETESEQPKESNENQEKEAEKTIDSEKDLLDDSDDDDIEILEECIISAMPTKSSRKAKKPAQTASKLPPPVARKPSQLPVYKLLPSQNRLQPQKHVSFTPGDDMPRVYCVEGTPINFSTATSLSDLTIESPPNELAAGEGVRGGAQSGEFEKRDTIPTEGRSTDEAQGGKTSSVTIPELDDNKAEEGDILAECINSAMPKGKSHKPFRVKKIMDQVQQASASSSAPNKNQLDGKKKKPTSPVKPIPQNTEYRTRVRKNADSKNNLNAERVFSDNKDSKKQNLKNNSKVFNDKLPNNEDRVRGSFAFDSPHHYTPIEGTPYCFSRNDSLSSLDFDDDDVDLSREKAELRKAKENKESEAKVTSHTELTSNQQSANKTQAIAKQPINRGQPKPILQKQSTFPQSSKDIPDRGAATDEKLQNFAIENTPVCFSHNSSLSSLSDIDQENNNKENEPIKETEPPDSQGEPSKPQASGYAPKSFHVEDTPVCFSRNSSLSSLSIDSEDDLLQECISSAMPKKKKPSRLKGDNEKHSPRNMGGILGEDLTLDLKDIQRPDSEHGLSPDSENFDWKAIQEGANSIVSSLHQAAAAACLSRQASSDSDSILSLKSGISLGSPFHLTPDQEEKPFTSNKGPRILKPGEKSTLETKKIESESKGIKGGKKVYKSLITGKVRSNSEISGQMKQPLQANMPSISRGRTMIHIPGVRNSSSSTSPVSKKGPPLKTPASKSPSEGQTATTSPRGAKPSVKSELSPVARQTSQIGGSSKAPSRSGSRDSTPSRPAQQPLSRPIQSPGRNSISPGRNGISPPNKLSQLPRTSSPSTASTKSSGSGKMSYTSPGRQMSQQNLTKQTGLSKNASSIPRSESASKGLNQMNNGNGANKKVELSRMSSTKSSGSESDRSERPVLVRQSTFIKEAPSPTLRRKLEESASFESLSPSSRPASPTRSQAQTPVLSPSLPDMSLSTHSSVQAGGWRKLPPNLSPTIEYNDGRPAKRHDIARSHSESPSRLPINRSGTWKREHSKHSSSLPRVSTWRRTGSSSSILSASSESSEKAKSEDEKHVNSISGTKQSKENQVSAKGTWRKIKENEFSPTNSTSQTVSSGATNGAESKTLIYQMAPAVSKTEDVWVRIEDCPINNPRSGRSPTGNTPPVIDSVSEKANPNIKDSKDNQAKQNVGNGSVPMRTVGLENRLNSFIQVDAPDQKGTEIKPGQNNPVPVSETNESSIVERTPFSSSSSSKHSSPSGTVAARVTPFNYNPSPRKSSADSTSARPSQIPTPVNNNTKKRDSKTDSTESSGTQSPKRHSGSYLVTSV

Consider `CC(=O)Nc1cccc(-n2c(=O)n(C3CC3)c(=O)c3c(Nc4ccc(I)cc4F)n(C)c(=O)c(C)c32)c1` [TRAMETINIB], for which the IC50 in [1] was determined as 1340 nM; in [2], 1160 nM.

As to `Cc1cc(C)c(S(=O)(=O)N2CCC(N3CCCCCC3)CC2)c(C)c1`, the IC50 was determined as 9.36 nM in [3] and 1390 nM in test [4].

In the case of `Cc1cc(C)c(S(=O)(=O)N2CCC(NCc3ccccc3)CC2)c(C)c1`, the values for the IC50 in test [3] and in [4] were 2.95 nM and 1070 nM, respectively.

Take `Cc1cc(SC(=O)O)c(S(=O)(=O)Nc2n[nH]c(Nc3ccccc3)n2)cc1C`: the IC50 in [5] was under 50 µM.

As to `Cc1cc(C)c(S(=O)(=O)N2CCC(N3CN4CCC3CC4)CC2)c(C)c1`, the IC50 in [3] was 188 nM; in [4] it was 2040 nM.

Compound Ac-GGEALAW-OH had an IC50 in test [6] of 10.1 µM. In addition, in [7], the Ki worked out at 3120 nM.

`Cc1ccc2nc(NC(=O)CNC(=O)c3nn(-c4ccccc4)c(=O)c4c3CCS4)sc2c1`: in test [8], the IC50 was 27 nM.

`CC(C)C[C@H](NC(=O)[C@H](C)NC(=O)[C@H](CCC(=O)O)NC(=O)CNC(=O)[C@H](C)NC(=O)OCc1ccccc1)C(=O)N[C@@H](Cc1ccc(O)cc1)C(=O)N[C@@H](CCC(=O)O)C(=O)O` (Cbz-AGEALYE-OH) had an IC50 in [6] of 1.09 µM. Also, the Ki in test [7] worked out at 120 nM.

In the case of `COc1ccccc1-n1nc(C(=O)NCC(=O)Nc2nc3ccc(C)cc3s2)c2c(c1=O)SCC2`, in test [8], the 50% inhibitory concentration (IC50) amounted to 40 nM.

Consider `COC(=O)c1cccc(NS(=O)(=O)c2ccc(C)cc2)c1`, for which the IC50 in test [9] came to 0.58 µM.

As to `CC/C(=N/NC(=O)c1ccccc1)c1cc(C)cc(C)c1O`, the values for the half-inhibitory concentration (IC50) in [10] and in test [11] were 900 nM and 1700 nM, respectively.

Consider H-GGEQLAI-OH, for which, in [6], the IC50 stood at 135 µM. Besides, the Ki in test [7] was found to be 44600 nM.

With `CC1CCN(C2CCN(S(=O)(=O)c3ccc(OC(C)C)cc3)CC2)CC1`, the IC50 is under 1000 nM in test [3] and 30 nM in test [4].

Ac-AGEALAD-OH displayed an IC50 in [6] of 7.97 µM. The Ki in [7] stood at 2410 nM.

In the case of `Cn1cnc2c(F)c(Nc3ccc(Br)cc3Cl)c(C(=O)NOCCO)cc21` [SELUMETINIB], the 50% inhibitory concentration (IC50) in test [1] was determined as 1250 nM; in [2] it was 950 nM.

As for `CC/C(=N/NC(=O)c1ccnc(NCCN2CCOCC2)c1)c1ccc(C)cc1O`, the results for the IC50 in test [10] and in [11] were 500 nM and 900 nM, respectively.

On to `NC1=NC(=O)N(C2CC(O)C(COP(=O)(O)O)O2)C(I)C1` (configuration not stated), for which, in test [9], the IC50 was under 50 µM.

As to `COc1ccc(-n2nc(C(=O)NCC(=O)Nc3nc4ccc(OC)cc4s3)c3ccccc3c2=O)cc1`, in [8], the IC50 was determined as 58 nM.

`Cc1cc(C(=O)N/N=C\c2ccccc2O)c2cc(Br)ccc2n1`: the IC50 came out at 1000 nM in [10] and 600 nM in test [11].

In turn, `Cc1cc(C)c(S(=O)(=O)Nc2n[nH]c(Nc3ccccc3)n2)cc1C` came in with an IC50 in test [5] of under 50 µM.

As to `Cc1ccc(-n2nc(C(=O)NCC(=O)Nc3nc4ccc(C)cc4s3)c3c(c2=O)SCC3)cc1`, in test [8], the IC50 is 25 nM.

On to `COC(=O)c1c(C)cc2c(c1O)[C@]1(O)C(=O)c3cc4c(c(O)c3C(=O)[C@]1(OC)[C@H](O)C2)C(=O)C=C(N[C@H]1O[C@@H](C)[C@H](OC)[C@@H](O)[C@H]1OC)C4=O`, for which, in test [12], the half-maximal inhibitory concentration (IC50) is under 150 nM.

In turn, `Cc1cc(C)c(S(=O)(=O)Nc2n[nH]c(Nc3ccc4ccccc4c3)n2)cc1C` gave an IC50 in test [5] of under 50 µM.

As for `Cc1ccc(-c2ccc(S(=O)(=O)N3CCC(N4CCC(C)CC4)CC3)cc2)cc1`, the IC50 in test [3] is 49 nM; in test [4], 0.1 nM.

Regarding `CCOC(=O)C[C@H](NC(=O)[C@H](Cc1c[nH]c2ccccc12)NC(=O)Cc1cc2cc(C)ccc2[nH]1)C(=O)N[C@@H](CCC(=O)O)C(=O)OC`, the IC50 worked out at 10800 nM in test [13] and 28.8 µM in test [9].

`COc1cccc(Nc2nc(NS(=O)(=O)c3cc(C)c(C)cc3C)n[nH]2)c1` came in with an IC50 in test [5] of under 50 µM.

For `Cn1ncnc2c(=O)n(C)c(=O)nc1-2`, the IC50 in test [12] came to 2860 nM.

In the case of `O=C1Nc2ccccc2C12OCC1(CO2)COC2(OC1)C(=O)Nc1ccccc12` (configuration not stated), the IC50 in test [13] came to 690 nM.

For the compound `COc1c(C[C@@H](C)OC(=O)Oc2ccc(O)cc2)c2c3c(C[C@@H](C)OC(=O)c4ccccc4)c(OC)c(=O)c4c(O)cc(OC)c(c5c(OC)cc(O)c(c1=O)c52)c43` [CALPHOSTIN C], the IC50 in test [12] stood at 2860 nM.

Take `Cn1nnc2c(C(N)=O)ncn2c1=O` [TEMOZOLOMIDE]: in test [9], the IC50 was under 50 µM.

On to `Cc1cc(C)c(S(=O)(=O)N2CCC([N+]3(C)CCCC3)CC2)c(C)c1`, for which the figures for the concentration for half-maximal inhibition (IC50) in test [3] and in test [4] were 303 nM and 50000 nM, respectively.

In the case of `CN1CCN(S(=O)(=O)c2ccc(N3CCCC3=O)cc2)c2ccccc21`, the IC50 was 15 nM in test [13] and 0.008 µM in test [9].

For the compound `N#CC(=C(/N)Sc1ccccc1N)/C(C#N)=C(\N)Sc1ccccc1N`, the half-maximal inhibitory concentration (IC50) in test [1] worked out at 1140 nM; in test [2], 940 nM.

For the compound `CCCC(=O)c1cc2c(c(O)c1C)C(=O)C(=O)c1c(O)cccc1-2`, the IC50 in test [12] came out at 780 nM.

`COc1c(C[C@@H](C)OC(=O)c2c(C)cc(O)cc2O)c2c3c(C[C@@H](C)OC(=O)c4c(C)cc(O)cc4O)c(OC)c(=O)c4c(O)cc(OC)c(c5c(OC)cc(O)c(c1=O)c52)c43`: in test [12], the IC50 stood at 3600 nM.

In the case of Ac-GGEALAD-OH, the 50% inhibitory concentration (IC50) in test [6] turned out to be 12.2 µM. Also, the Ki in test [7] came out at 3800 nM.

In test [6], `C[C@H](NC(=O)OCc1ccccc1)C(=O)NCC(=O)N[C@@H](CCC(=O)O)C(=O)N[C@@H](C)C(=O)N[C@@H](CC1CCCC1)C(=O)N[C@@H](Cc1ccc(O)cc1)C(=O)N[C@@H](CCC(=O)O)C(=O)O` (Cbz-AGEA[Ala(cPent)]YE-OH) registered a half-maximal inhibitory concentration (IC50) of 0.57 µM. Besides, the Ki in test [7] worked out at 15 nM.
